Columns and labels:
[1] = cited from earlier work
Phase solubility studies = conditions: active with HPBCD; calculated using Eq. (1)
[2] = Solubility in water (statements); type: physicochemical
[3] = Stability studies (shelf life, visible changes); type: physicochemical; conditions: visible changes; for Stability of Actives at 40° C.: 40° C. accelerated stability
Experimental: The effects of HPBCD on the shelf life stability of each active agent is studied at pre-determined temperatures for 11 weeks. Real time stability is observed at −17° C., 5° C. and 25° C., and accelerated stability is observed at 40° C. For accelerated stability, one day at 40° C. is equivalent to one week, thus the data represents 77 weeks. […] The vials are then placed in a temperature-controlled oven or refrigerator/freezer. The compounds are checked daily and any visible changes are noted.

[4] = cited from earlier work; remark: listed apart in the source
[5] = Differential scanning calorimetry (decomposition); type: physicochemical; conditions: DSC curve
Experimental: Calorimetric studies are conducted using a Modulated Differential Scanning calorimetry instrument (MDSC). Accurately weighed samples are sealed in Tzero aluminum pans. Empty sealed Tzero aluminum pans are used as a reference. […] Thermal analysis of pure active, excipients, formulations and physical mixtures are performed. Data analysis is performed using Universal Analysis software to measure melting point enthalpy of melting.
Differential scanning calorimetry (DSC) is a thermoanalytical technique useful in detecting phase transitions in solid samples by measuring the amount of heat absorbed or released during such transitions.
DSC analysis was performed using a TA Trios DSC instrument. Samples tested were HPBCD, the Active, and the active-HPBCD inclusion complexes. Each weighed sample for analysis ranged from 2.00 mg to 4.00 mg.

Row | association constant (Kc) for complex formation (Phase solubility studies) [M⁻¹] | Stability of Actives at 5° C. ([3]; Week 1) | Stability of Actives at 25° C. ([3]; Week 1) | Stability of Actives at 25° C. ([3]; Week 2) | Stability of Actives at 25° C. ([3]; Week 3) | Stability of Actives at 25° C. ([3]; Week 4) | Stability of Actives at 25° C. ([3]; Week 5) | Stability of Actives at 25° C. ([3]; Week 6) | Stability of Actives at 25° C. ([3]; Week 7) | Stability of Actives at 25° C. ([3]; Week 8) | Stability of Actives at 25° C. ([3]; Week 9) | Stability of Actives at 25° C. ([3]; Week 10) | Stability of Actives at 25° C. ([3]; Week 11) | Stability of Actives at 40° C. ([3]; Week 1) | Stability of Actives at 5° C. ([3]; Week 2) | Stability of Actives at 5° C. ([3]; Week 3) | Stability of Actives at 5° C. ([3]; Week 4) | Stability of Actives at 5° C. ([3]; Week 5) | Stability of Actives at 5° C. ([3]; Week 6) | Stability of Actives at 5° C. ([3]; Week 7) | Compound | further results
1 |  |  |  |  |  |  |  |  |  |  |  |  |  |  |  |  |  |  |  |  | 1,3-diazacyclopenta-2,4-diene [imidazole] | pKa of conjugate acid (imidazolium ion) [1]: approximately 7.0
2 | 0.79856 | 0 | 0 | 0 | 0 | 0 | 0 | 0 | 0 | 0 | 0 | 0 | 0 | 0 |  |  |  |  |  |  | NC(=O)c1cccnc1 [Niacinamide] | solubility in water [2]: strong water solubility
3 |  | 0 | 0 | 0 | 0 | 0 | 0 | 0 | 0 | 0 | 0 | 0 | 0 | 0 | 0 | 0 | 0 | 0 | 0 | 0 | CC(O)COC[C@H]1O[C@@H]2O[C@H]3[C@H](O)[C@@H](O)[C@@H](O[C@H]4[C@H](O)[C@@H](O)[C@@H](O[C@H]5[C@H](O)[C@@H](O)[C@@H](O[C@H]6[C@H](O)[C@@H](O)[C@@H](O[C@H]7[C@H](O)[C@@H](O)[C@@H](O[C@H]8[C@H](O)[C@@H](O)[C@@H](O[C@H]1[C@H](O)[C@H]2O)O[C@@H]8COCC(C)O)O[C@@H]7COCC(C)O)O[C@@H]6COCC(C)O)O[C@@H]5COCC(C)O)O[C@@H]4COCC(C)O)O[C@@H]3COCC(C)O (stereo partly drawn) [HPBCD, Hydroxypropyl β-cyclodextrin] | aqueous solubility [4]: more than 60 g/100 mL; Stability of Actives at 5° C. ([3]; Week 8): 0; Stability of Actives at 5° C. ([3]; Week 9): 0; Stability of Actives at 5° C. ([3]; Week 10): 0; Stability of Actives at 5° C. ([3]; Week 11): 0; Stability of Actives at 40° C. ([3]; Week 2): 0; Stability of Actives at 40° C. ([3]; Week 3): 0; Stability of Actives at 40° C. ([3]; Week 4): 0; Stability of Actives at 40° C. ([3]; Week 5): 0; Stability of Actives at 40° C. ([3]; Week 6): 0; Stability of Actives at 40° C. ([3]; Week 7): 0; Stability of Actives at 40° C. ([3]; Week 8): 0; Stability of Actives at 40° C. ([3]; Week 9): 0; Stability of Actives at 40° C. ([3]; Week 10): 0; Stability of Actives at 40° C. ([3]; Week 11): 0
4 | 1.031 | 0 | 0 | 0 | 0 | 0 | 0 | 0 | 0 | 0 | 0 | 0 | 0 | 0 | 0 | 0 | 0 | 0 | 0 | 0 | CCOC(=O)c1ccc(N)cc1 [Benzocaine] | decomposition (DSC) [5]: 230 °C; Stability of Actives at 5° C. ([3]; Week 8): 0; Stability of Actives at 5° C. ([3]; Week 9): 0; Stability of Actives at 5° C. ([3]; Week 10): 0; Stability of Actives at 5° C. ([3]; Week 11): 0; Stability of Actives at 40° C. ([3]; Week 2): 0; Stability of Actives at 40° C. ([3]; Week 3): 0; Stability of Actives at 40° C. ([3]; Week 4): 0; Stability of Actives at 40° C. ([3]; Week 5): 0; Stability of Actives at 40° C. ([3]; Week 6): 0; Stability of Actives at 40° C. ([3]; Week 7): 0; Stability of Actives at 40° C. ([3]; Week 8): 0; Stability of Actives at 40° C. ([3]; Week 9): 0; Stability of Actives at 40° C. ([3]; Week 10): 0; Stability of Actives at 40° C. ([3]; Week 11): 0

— patent US20200347153A1, “METHODS FOR FORMING INCLUSION COMPLEXES WITH HYDROPHILIC BETA-CYCLODEXTRIN DERIVATIVES AND COMPOSITIONS THEREOF” (priority 2019, published 2020)
